Reference: patent US6372779B1, “Anti-inflammatory compounds” (Ortho Pharmaceutical Corporation, priority 1997, dated 2002)
Entries after “also recorded” stand apart in the source; their conditions may differ.

Assays:
[1] = test system: human progesterone receptor (hPR); test: human progesterone receptor binding assay (displacement of 3H R5020 promegestone)
Method: A human progesterone receptor binding assay was performed in order to determine selectivity of the compounds, as follows. Human progesterone receptors were prepared from either insect cells (SF21) infected with baculovirus hPR A, or from a breast cancer cell line, T47D, which expresses high levels of endogenous hPR. The receptor binding reactions, with or without test compounds, were set up in 96-well microtiter plates which were previously siliconized with SIGMACOTE. The binding components, 3(H) R5020 Promegestone, a high affinity ligand for the progesterone receptors, glycerollmolybdate-containing buffer and unlabeled compounds were added to the wells using a combination of BIOMEK laboratory automation system and repeat pipettes. After overnight incubation, the samples were precipitated with polyethylene glycol and filtered through Whatman GF/F paper using a TOMTEK cell harvester. The filter mate with 96 samples were bound to a solid-phase scintillant and directly counted in the BETAPLATE counter. Only those compounds that were active in the human glucocorticoid receptor assay set forth in Example 30 were used for progesterone receptor binding to determine cross-reactivity profiles, if any. The activity of test compounds to displace 3(H) R5020 binding to hPR is expressed as percent inhibition at the two concentrations, 10^−6 and 10^−5 Molar.

[2] = test system: oxazolone-induced ear swelling in CD-1 mice; test: mouse oxazolone-induced contact hypersensitization (MOCH), ear swelling; type: in vivo; settings: for inhibition in vivo at 1 mg: topical to ear, mouse, 24 hours after oxazolone challenge, read-out: Oxazolone Ear Swelling (MOCH) % inhibition vs. Vehicle at 1 mg; for topical antiinflammatory activity in the oxazolone model (in words): mouse ear
Method: Several triphenylpropanamide compounds of this invention, having varying affinities for the human glucocorticoid receptor, were tested for topical antiinflammatory activity in mouse ear inflammation models. […] Compounds having receptor affinities closer to hydrocortisone were as nearly active as hydrocortisone in suppressing mouse oxazolone-induced contact hypersensitization (MOCH) and phorbol ester-induced ear edema. The in vivo studies of this example were conducted as follows.
In determining the MOCH using the compounds of this invention, albino male CD-1 mice, 7-9 weeks old were induced on the shaved abdomen with 50 μl of 3% oxazolone in acetone/corn oil (Day 0). On Day 5, a 20 μl volume of 2% oxazolone in acetone was applied to the dorsal left ear of the mouse. Compounds (made in ethanol/propylene glycol, 70:30) were applied to the left ear in 20 μl volume, one hour after oxazolone challenge. The right ear was not treated. The mice were sacrificed by carbon dioxide inhalation 24 hours after oxazolone challenge, the left and right ears were removed and a 7 mm biopsy was removed from each ear and weighed. The difference in biopsy weights between the right and left ears was calculated. Antiinflammatory effects of compounds were evident as an inhibition of the increase in ear weight.

Row | Compound | hPR % inh 10 μM [1] [%] | melting point [°C] | inhibition in vivo at 1 mg [2] [%] | topical antiinflammatory activity in the oxazolone model (in words) [2]
1 | COc1ccc(CC(=O)NCC(c2ccc(I)cc2)C(c2ccccc2)c2ccccc2)cc1 (stereo not shown) [Compound 170] | 25 | – | – | –
2 | O=C(Cc1ccc2ccccc2c1)NCC(c1ccc(C(F)(F)F)cc1)C(c1ccccc1)c1ccccc1 (stereo not shown) [Compound 157] | 10 | – | – | –
3 | COc1cccc(CC(=O)NCC(c2ccc(I)cc2)C(c2ccccc2)c2ccccc2)c1 (stereo not shown) [Compound 169] | 45 | – | – | –
4 | COc1cc(OC)cc(C(=O)NCC(c2ccc(I)cc2)C(c2ccccc2)c2ccccc2)c1 (stereo not shown) [Compound 183] | 42 | – | – | –
5 | Cc1ccc(CC(=O)NCC(c2ccccc2)C(c2ccc(F)cc2)c2ccc(F)cc2)s1 (stereo not shown) [Compound 32] | – | 127.9 to 128.9 | 83 | equiactive with hydrocortisone; also recorded: inhibited ear swelling in a dose-dependent manner
6 | O=C(C=Cc1cccs1)NCC(c1ccccc1)C(c1ccccc1)c1ccccc1 (stereo not shown) [Compound 38] | – | 217.3 to 218.9 | 13 | –
7 | Cc1ccc(S(=O)(=O)NCC(c2ccccc2)C(c2ccccc2)c2ccccc2)cc1 (stereo not shown) [Compound 26] | – | 139.7 to 142.1 | -5 | –
8 | Cc1c(CC(=O)NCC(c2ccc(C(F)(F)F)cc2)C(c2ccccc2)c2ccccc2)sc2ccc(Cl)cc12 (stereo not shown) [Compound 158] | 16 | – | – | –
9 | O=C(NCC(c1ccccc1)C(c1ccccc1)c1ccccc1)c1cc2ccccc2s1 (stereo not shown) [Compound 43] | – | 218.3 to 218.8 | 47 | –
10 | O=C(CCc1ccccc1Cl)NCC(c1ccccc1)C(c1ccccc1)c1ccccc1 (stereo not shown) [Compound 22] | – | 135 to 135.8 | 15 | –
11 | COc1ccc(CC(=O)NCC(c2ccccc2)C(c2ccccc2)c2ccccc2)cc1 (stereo not shown) [Compound 6] | – | 157 to 159 | 38 | –
12 | O=C(Cc1ccccc1)NCC(c1ccccc1)C1c2ccccc2-c2ccccc21 (stereo not shown) [Compound 66] | – | 148.7 to 150.8 | 20 | –
13 | Cc1ccc(CC(=O)NCC(c2ccccc2)C(c2ccccc2)c2ccccc2)cc1 (stereo not shown) [Compound 4] | – | 142.3 to 143.6 | 1 | –
14 | O=C(CS(=O)(=O)c1ccccc1)NCC(c1ccccc1)C(c1ccccc1)c1ccccc1 (stereo not shown) [Compound 27] | – | 186.9 to 187.5 | 20 | –
15 | O=C(Cc1ccc(Cl)c(Cl)c1)NCC(c1ccccc1)C(c1ccccc1)c1ccccc1 (stereo not shown) [Compound 9] | – | 65 to 68 | 18 | –
16 | O=C(CCCc1cccs1)NCC(c1ccccc1)C(c1ccccc1)c1ccccc1 (stereo not shown) [Compound 37] | – | 105.5 to 106.9 | 25 | –
17 | O=C(NCC(c1ccccc1)C(c1ccccc1)c1ccccc1)Oc1ccccc1 (stereo not shown) [Compound 56] | – | 128 to 129 | 38 | –
18 | O=C(NCC(c1ccccc1)C(c1ccccc1)c1ccccc1)c1cccs1 (stereo not shown) [Compound 45] | – | 139 to 142 | 31 | –
19 | O=C(Cc1ccsc1)NCC(c1ccc(Cl)cc1)C(c1ccccc1)c1ccccc1 (stereo not shown) [Compound 35] | – | 126.4 to 127.9 | 36 | –
20 | O=C(Cc1ccccc1Cl)NCC(c1ccccc1)C(c1ccccc1)c1ccccc1 (stereo not shown) [Compound 2] | – | 140.5 to 141.2 | 4 | –
21 | COc1ccc(CC(=O)NCC2(c3ccccc3)CC2(c2ccccc2)c2ccccc2)cc1OC (stereo not shown) [Compound 79] | – | 131 to 133.5 | 18 | –
22 | O=C(Cc1ccccc1)NCC(c1ccc(Cl)cc1)C(c1ccccc1)c1ccccc1 (stereo not shown) [Compound 14] | – | 151.5 to 152.7 | 11 | –
23 | O=C(NCC(c1ccccc1)C(c1ccccc1)c1ccccc1)C(c1ccccc1)c1ccccc1 (stereo not shown) [Compound 13] | – | 178.7 to 179.8 | 10 | –
24 | O=C(Cc1cccs1)NCC(c1ccccc1)C(c1ccccc1)c1ccccc1 (stereo not shown) [Compound 29, N-(2-thiophene)acetyl-2,3,3-triphenylpropylamine] | – | 130 to 132 | 83 | equiactive with hydrocortisone; also recorded: inhibited ear swelling in a dose-dependent manner

Further lines, with some results ahead:

Row | hPR % inh 10 μM [1] [%] | melting point [°C] | Compound | inhibition in vivo at 1 mg [2] [%] | topical antiinflammatory activity in the oxazolone model (in words) [2]
25 | 40 | – | O=C(Cc1ccccc1F)NCC(c1ccc(I)cc1)C(c1ccccc1)c1ccccc1 (stereo not shown) [Compound 164] | – | –
26 | 19 | – | O=C(Cc1ccc(-c2ccccc2)cc1)NCC(c1ccc(C(F)(F)F)cc1)C(c1ccccc1)c1ccccc1 (stereo not shown) [Compound 156] | – | –
27 | 72 | – | O=C(NCC(c1ccc(I)cc1)C(c1ccccc1)c1ccccc1)c1ccc(Cl)cc1 (stereo not shown) [Compound 173] | – | –
28 | 10 | – | O=C(NCC(c1ccc(C(F)(F)F)cc1)C(c1ccccc1)c1ccccc1)c1cc(C(F)(F)F)cc(C(F)(F)F)c1 (stereo not shown) [Compound 160] | – | –
29 | 57 | – | Cc1ccc(C(=O)NCC(c2ccc(I)cc2)C(c2ccccc2)c2ccccc2)s1 (stereo not shown) [Compound 180] | – | –
30 | 53 | – | O=C(NCC(c1ccc(I)cc1)C(c1ccccc1)c1ccccc1)c1ccc(C(F)(F)F)cc1 (stereo not shown) [Compound 177] | – | –
31 | – | 172.9 to 174.2 | O=S(=O)(Cc1ccccc1)NCC(c1ccccc1)C(c1ccccc1)c1ccccc1 (stereo not shown) [Compound 25] | 9 | –
32 | – | 100 to 114 | O=C(CCc1c[nH]c2ccccc12)NCC(c1ccccc1)C(c1ccccc1)c1ccccc1 (stereo not shown) [Compound 48] | 22 | –
33 | 53 | – | O=C(NCC(c1ccc(I)cc1)C(c1ccccc1)c1ccccc1)c1cc(C(F)(F)F)cc(C(F)(F)F)c1 (stereo not shown) [Compound 178] | – | –
34 | – | 103 to 105.5 | CCOC(=O)CC(=O)NCC(c1ccccc1)C(c1ccccc1)c1ccccc1 (stereo not shown) [Compound 65] | 13 | –
35 | – | 172.1 to 173 | Cc1ccc(C(=O)NCC(c2ccccc2)C2c3ccccc3CCc3ccccc32)s1 (stereo not shown) [Compound 77] | 41 | –
36 | – | 134.3 to 136.8 | COc1ccccc1CCC(=O)NCC(c1ccccc1)C1c2ccccc2CCc2ccccc21 (stereo not shown) [Compound 74] | 18 | –
37 | – | 170 to 171 | O=C(NCc1ccccc1)NCC(c1ccccc1)C(c1ccccc1)c1ccccc1 (stereo not shown) [Compound 54] | 10 | –
38 | – | 126.3 to 127 | O=C(Cc1cccs1)NCC(c1ccc(Cl)cc1)C(c1ccccc1)c1ccccc1 (stereo not shown) [Compound 34] | 29 | –
39 | – | 190.3 to 191.9 | Cc1ccc(S(=O)(=O)CC(=O)NCC(c2ccccc2)C(c2ccccc2)c2ccccc2)cc1 (stereo not shown) [Compound 28] | 28 | –
40 | – | 84.9 to 85.3 | O=C(Cc1cccs1)NCC(c1ccccc1)C(c1ccc(F)cc1)c1ccc(F)cc1 (stereo not shown) [Compound 31] | 14 | –
41 | – | 180.4 to 181.9 | O=S(=O)(NCC(c1ccc(Cl)cc1)C(c1ccccc1)c1ccccc1)c1cccs1 (stereo not shown) [Compound 41] | 3 | –
42 | – | 153.5 to 154.7 | O=C(NCC(c1ccccc1)C(c1ccccc1)c1ccccc1)c1ccsc1 (stereo not shown) [Compound 42] | 27 | –
43 | – | 128.5 to 130.5 | O=C(Cc1ccccc1Cl)NCC1(c2ccccc2)CC1(c1ccccc1)c1ccccc1 (stereo not shown) [Compound 80, N-(2chlorophenyl)acetyl-1,2,2-triphenylcyclopropylmethylamine] | 54 | –
44 | – | 204.8 to 206.5 | O=C(C=Cc1ccsc1)NCC(c1ccccc1)C(c1ccccc1)c1ccccc1 (stereo not shown) [Compound 39] | 24 | –
45 | – | 166 to 167 | O=C(NCc1ccc(Cl)cc1Cl)NCC(c1ccccc1)C(c1ccccc1)c1ccccc1 (stereo not shown) [Compound 55] | 18 | –
46 | – | 167 to 168 | CC(C)C(=O)NCC1(c2ccccc2)CC1(c1ccccc1)c1ccccc1 (stereo not shown) [Compound 84] | 54 | –
47 | – | 119.5 to 120.3 | O=C(Cc1ccc(C(F)(F)F)cc1)NCC(c1ccccc1)C(c1ccccc1)c1ccccc1 (stereo not shown) [Compound 12] | 36 | –
48 | – | 135 to 137 | O=C(Cc1cccs1)NCC1(c2ccccc2)CC1(c1ccccc1)c1ccccc1 (stereo not shown) [Compound 88] | 29 | –
49 | – | 78.1 to 81 | O=C(CCCc1ccccc1)NCC(c1ccccc1)C(c1ccccc1)c1ccccc1 (stereo not shown) [Compound 24] | 21 | –
